Values quoted from earlier work in patent EP3357492B1, “MULTILAYER TABLET FOR ADMINISTRATION OF MAGNESIUM” (S.I.I.T. S.r.l.-Servizio Internazionale Imballaggi …, priority 2017, dated 2018).

Settings: in water

| Solubility (g/100 g water) | Compound |
| --- | --- |
| 4 g/100 g water | Glycerophosphate |
| 40-50 g/100 g water | Phosphate |

| Compound | Solubility (g/100 g water) |
| --- | --- |
| [O]=[Mg] [Oxide, Magnesium oxide] | <1 g/100 g water |

Settings: not given

| pH (1% in water solution) | Compound |
| --- | --- |
| 7 | O.O.O=C1O[C@H]([C@@H](O)CO)C([O-])=C1O.O=C1O[C@H]([C@@H](O)CO)C([O-])=C1O.[Mg+2] [Ascorbate 2 hydrate] |
| 7 | N[C@@H](CC(=O)O)C(=O)[O-].N[C@@H](CC(=O)O)C(=O)[O-].O.O.O.O.[Mg+2] [Aspartate 4 hydrate] |
| 10 | O=C([O-])[O-].[Na+].[Na+] [Carbonate] |
| 8 | O.O.O.O.O.O=P([O-])([O-])[O-].O=P([O-])([O-])[O-].[Mg+2].[Mg+2].[Mg+2] [Phosphate 5 hydrate] |
| 6 | O=C1CC[C@@H](C(=O)[O-])N1.O=C1CC[C@@H](C(=O)[O-])N1.[Mg+2] [Pidolate] |
| 10 | CCC(=O)O [Propionate] |
| 7 | Fumarate |
| 7 | Gluconate |
| 7 | Glycerophosphate |
| 7 | Lactate |
| 6 | Phosphate |

| Compound | pH (1% in water solution) |
| --- | --- |
| O.O.O.O.O.O.[Cl-].[Cl-].[Mg+2] [Chloride 6 hydrate] | 5 |
| O=C(O)CC(O)(CC(=O)O)C(=O)O [Citrate] | 4 |
| O=C([O-])CC(O)(CC(=O)[O-])C(=O)[O-].O=C([O-])CC(O)(CC(=O)[O-])C(=O)[O-].[Mg+2].[Mg+2].[Mg+2] [Dicitrate] | 9 |
| [Mg+2].[OH-].[OH-] [Hydroxide, Magnesium hydroxide] | 10.5 |
| [O]=[Mg] [Oxide, Magnesium oxide] | 10.5 |
| O=C([O-])CC(O)(CC(=O)[O-])C(=O)[O-].[K+].[K+].[K+] [Potassium citrate] | 7.5 |
